According to patent US10071985B2, “Therapeutic compounds” (Gilead Sciences, Inc., priority 2016, dated 2018):
Read-outs that look alike come from different tables or passages of the source. Blank lines part the entries; values can stand above or below the compound they belong to.

How the values were obtained:
Human Liver Hepatocytes = assay: Test D: Metabolic Stability in Cultured Human Liver Hepatocytes; type: in vitro ADME; conditions: pooled cryopreserved hepatocytes, […] radiolabelled compound, 0-6 hours; calculated from stability data
Description: Test D. Metabolic Stability in Cultured Human Liver Hepatocytes
The final hepatocyte concentration was 1 million cells/mL. The hepatocyte/compound reaction mixture was dissolved in InVitroGRO™ KHB buffer (catalog #Z99074, BioreclamationIVT, Inc., Baltimore, Md.) at pH 7.4. The incubations were performed in duplicate. A cell free control and a positive control were included in the incubations. The incubations were carried out with gentle shaking in a 37° C. incubator under a humid atmosphere of 95% air/5% CO2 (v/v). Aliquots (100 mL) were removed after 0, 1, 3, and 6 hours and added to 200 mL quenching solution that comprised 0.1% (v/v) TFA in 5% water/95% acetonitrile (v/v). The samples were placed on a shaker for 10 min, followed by centrifugation at 3000 g for 30 min. The samples of the supernatant were analyzed on a Dionex HPLC/PerkinElmer Flow Scintillation Analyzer as described below.
The column was a Phenomenex Synergi fusion RP (150×4.6 mm, 4 mm) maintained at 32 degrees Celsius. Mobile Phase A consisted of 0.1% (v/v) TFA in 99% water/1% acetonitrile (v/v). Mobile Phase B consisted of 0.1% (v/v) TFA in 5% water/95% acetonitrile (v/v). […]
Metabolic stability was determined by measuring the change in relative abundance of metabolites and parent over time and calculating from it the rate of disappearance of the parent compound. […]

[1] = Test C: Pharmacokinetic analysis following intravenous administration to Sprague-Dawley rats; type: in vivo; conditions: for clearance: read-out: Rat CL (converted); for AUC(0-inf): t = 0 to infinity, read-out: Rat AUCinf; for Cmax: maximum plasma concentration
Excerpt: (§1) Test C. Pharmacokinetic Analysis Following Intravenous Administration to Sprague-Dawley Rats and Beagle Dogs and Cynomologous Monkeys
All IV formulations were in solution.
(§2) Each rat IV dosing group consisted of 3 male SD rats. […] The animals were fasted overnight prior to dose administration and up to 4 hr after dosing. Each dog IV dosing group consisted of 3 male, naïve beagle dogs. At dosing, the animals weighed ˜10-12 kg. The animals were fasted overnight prior to dose administration and up to 2 hr after dosing.
(§3) For the IV infusion group, the test compound was administered by intravenous infusion over 30 minutes. The rate of infusion was adjusted according to the body weight of each animal to deliver a dose of 1 mg/kg at 2 mL/kg.
(§4) Serial venous blood samples (approximately 0.4 mL each for rat and 1.0 mL for dog) were taken at specified time points after dosing from each animal. The blood samples were collected into Vacutainer™ tubes (Becton-Dickinson Corp, New Jersey, USA) containing EDTA as the anti-coagulant and were immediately placed on wet ice pending centrifugation for plasma. Centrifugation began within 1 hour of collection. All samples were placed into 96-well tubes and maintained on dry ice prior to storage at approximately −70° C.
(§5) An LC/MS/MS method was used to measure the concentration of test compounds in plasma.
(§6) Non-compartmental pharmacokinetic analysis was performed on the plasma concentration-time data.

HIV-IIIb = assay: Test A: Antiviral Assay in MT4 Cells; type: cell-based, HIV-1
Description: 1 mL Aliquots of MT4 cells were pre-infected for 3 hours at 37° C. with 25 μL of cell growth medium (mock-infected) or a fresh 1:250 dilution of an HIV-IIIb concentrated ABI stock (0.004 m.o.i.). Infected and uninfected cells were diluted in cell growth media and 35 μL (2000 cells) was added to each well of the assay plates.
Assay plates were then maintained in a humidified, 5% CO2 incubator at 37° C. After 5 days of incubation, 25 μl of 2× concentrated CellTiter-Glo™ Reagent (catalog #G7573, Promega Biosciences, Inc., Madison, Wis.) was added to each well of the assay plate. Cell lysis was carried out by incubating at room temperature for 10 minutes and then chemiluminescence was read using an Envision plate reader (PerkinElmer).

[2] = Test C: Pharmacokinetic analysis following intravenous administration to cynomolgus monkeys; type: in vivo, cynomolgus (cyno) monkey; conditions: male, cynomolgus monkey, 1 mg/kg; for AUC(0-inf): t = 0 to infinity, read-out: Cyno AUCinf; for Cmax: maximum plasma concentration, read-out: Cyno Cmax
Description: as §1
All IV formulations were in solution.
Each cynomolgus (cyno) monkey IV dosing group consisted of 3 male, naïve cyno monkeys At dosing, the animals weighed ˜3.2-4 kg. The animals were fasted overnight prior to dose administration and up to 2 hr after dosing.
as §3, §4, §5, §6

[3] = Test B: Cytotoxicity Assay; conditions: human
Description: Compound cytotoxicity and the corresponding CC50 values was determined using the same protocol as described in the antiviral assay (Test A) except that uninfected cells were used.

[4] = Test C: Pharmacokinetic analysis following intravenous administration to beagle dogs; type: in vivo
Excerpt: as §1
All IV formulations were in solution.
as §2, §3, §4, §5, §6

[5] = male, Sprague-Dawley, rat, plasma, iv, 1 mg/kg
[6] = male, Sprague-Dawley, rat, plasma, IV infusion over 30 minutes, 1 mg/kg
[7] = male, Sprague-Dawley, rat, IV infusion over 30 minutes, 1 mg/kg
[8] = plasma, IV infusion over 30 minutes
[9] = Human immunodeficiency virus 1, IIIB, MT4, 120 h

Predicted Human Hepatic Clearance (Human Liver Hepatocytes): 0.01 L/h/kg
clearance [1, 5]: 0.833 mL/min/kg
AUC(0-inf) [1, 6]: 19 µM·h
Cmax [1, 7]: 1800 nM
EC50 (HIV-IIIb; Human immunodeficiency virus 1, 120 h, MT4 cells infected with HIV-IIIb, 5 days incubation, CellTiter-Glo, read-out: EC50): 0.185 nM
AUC(0-inf) [2, 8]: 4.5 µM·h
Cmax ([2]; IV infusion over 30 minutes): 1300 nM
SMILES: CC(C)(C#Cc1ccc(-c2ccc(Cl)c3c(NS(C)(=O)=O)nn(CC(F)(F)F)c23)c([C@H](Cc2cc(F)cc(F)c2)NC(=O)Cn2nc(C(F)(F)F)c3c2C(F)(F)[C@@H]2C[C@H]32)n1)S(C)(=O)=O [Compound 24, N—((S)-1-(3-(4-chloro-3-(methylsulfonamido)-1-(2,2,2-trifluoroethyl)-1H-indazol-7-yl)-6-(3-methyl-3-(methylsulfonyl)but-1-yn-1-yl)pyridin-2-yl)-2-(3,5-difluorophenyl)ethyl)-2-((3bS,4aR)-5,5-difluoro-3-(trifluoromethyl)-3b,4,4a,5-tetrahydro-1H-cyclopropa[3,4]cyclopenta[1,2-c]pyrazol-1-yl)acetamide]
CC50 at 5 days ([3]; uninfected MT4 cells): 30.1 µM

SMILES: CC(C)(C#Cc1ccc(-c2ccc(Cl)c3c(NS(=O)(=O)C4CC4)nn(CC(F)F)c23)c([C@H](Cc2cc(F)cc(F)c2)NC(=O)Cn2nc(C(F)F)c3c2C(F)(F)[C@@H]2C[C@H]32)n1)S(C)(=O)=O [Compound 38, N—((S)-1-(3-(4-chloro-3-(cyclopropanesulfonamido)-1-(2,2-difluoroethyl)-1H-indazol-7-yl)-6-(3-methyl-3-(methylsulfonyl)but-1-yn-1-yl)pyridin-2-yl)-2-(3,5-difluorophenyl)ethyl)-2-((3bS,4aR)-3-(difluoromethyl)-5,5-difluoro-3b,4,4a,5-tetrahydro-1H-cyclopropa[3,4]cyclopenta[1,2-c]pyrazol-1-yl)acetamide]
clearance [1, 5]: 1.33 mL/min/kg
half-life ([1]; male, Sprague-Dawley, rat, plasma, iv, 1 mg/kg, read-out: Rat t1/2 (converted)): 1140 min
AUC(0-inf) [1, 6]: 13 µM·h
Vd ([1]; male, Sprague-Dawley, rat, plasma, IV infusion over 30 minutes, 1 mg/kg, volume of distribution at steady state, read-out: Rat Vss): 1.8 L/kg
Cmax [1, 7]: 2400 nM
times longer in vivo terminal half-life in rat relative to compound A ([1]; relative to compound A): about 9.5 times
times lower in vivo clearance in rat relative to compound A ([1]; relative to compound A): about 6.3 times
times longer in vivo terminal half-life in rat relative to compound B ([1]; relative to compound B): about 6.3 times
times lower in vivo clearance in rat relative to compound B ([1]; relative to compound B): about 5.4 times
EC50 (HIV-IIIb; [9]): 0.399 nM
times more potent in HIV antiviral assay relative to compound A (HIV-IIIb; relative to compound A): about 4 times
times more potent in HIV antiviral assay relative to compound B (HIV-IIIb; relative to compound B): about 8 times
in vivo clearance and terminal half-life in dog compared to compounds A and B ([4]; compared to compounds A and B): similar
clearance ([4]; male, beagle, dog, plasma, iv, 1 mg/kg, read-out: Dog CL (converted)): 5.5 mL/min/kg
half-life ([4]; male, beagle, dog, plasma, iv, 1 mg/kg, read-out: Dog t1/2 (converted)): 420 min
AUC(0-inf) ([4]; male, beagle, dog, plasma, IV infusion over 30 minutes, 1 mg/kg, t = 0 to infinity, read-out: Dog AUCinf): 3.3 µM·h
Vd ([4]; male, beagle, dog, plasma, IV infusion over 30 minutes, 1 mg/kg, volume of distribution at steady state, read-out: Dog Vss): 1.77 L/kg
Cmax ([4]; male, beagle, dog, IV infusion over 30 minutes, 1 mg/kg, maximum plasma concentration): 1600 nM
clearance ([2]; plasma, iv, read-out: Cyno CL (converted)): 3.5 mL/min/kg
half-life ([2]; plasma, iv, read-out: Cyno t1/2 (converted)): 570 min
AUC(0-inf) [2, 8]: 4.9 µM·h
Vd ([2]; plasma, IV infusion over 30 minutes, volume of distribution at steady state, read-out: Cyno Vss): 2.1 L/kg
Cmax ([2]; IV infusion over 30 minutes): 1300 nM
CC50 at 5 days [3]: 55.2 µM

EC50 (HIV-IIIb; [9]): 2.99 nM
SMILES: Cn1nc(NS(C)(=O)=O)c2c(Cl)ccc(-c3ccc(C#CC(C)(C)O)nc3[C@H](Cc3cc(F)cc(F)c3)NC(=O)Cn3nc(C(F)(F)F)c4c3C(F)(F)[C@@H]3C[C@H]43)c21 [Compound B, reference compound]
